Our source for the remaining binding values is article PMC10046369, “Low-Affinity/High-Selectivity Dopamine Transport Inhibition Sufficient to Rescue Cognitive Functions in the Aging Rat” (Biomolecules, 2023).

The target of one assay is T1, PFPK5(P.falciparum) (Plasmodium falciparum, UniProt P61075).
T1 construct: gene CRK2
As to the kind of experiment: biochemical. The settings on record: read-out: %Ctrl @ 2800nM. More on the design: KINOMEscan competition binding panel, per cent of control.

The target in the next assay is PKNB(M.tuberculosis) (Mycobacterium tuberculosis, UniProt P9WI81). Description: biochemical. As to conditions: read-out: %Ctrl @ 2800nM. More on the design: KINOMEscan competition binding panel, per cent of control.
PKNB(M.tuberculosis), sequence (P9WI81 whole entry): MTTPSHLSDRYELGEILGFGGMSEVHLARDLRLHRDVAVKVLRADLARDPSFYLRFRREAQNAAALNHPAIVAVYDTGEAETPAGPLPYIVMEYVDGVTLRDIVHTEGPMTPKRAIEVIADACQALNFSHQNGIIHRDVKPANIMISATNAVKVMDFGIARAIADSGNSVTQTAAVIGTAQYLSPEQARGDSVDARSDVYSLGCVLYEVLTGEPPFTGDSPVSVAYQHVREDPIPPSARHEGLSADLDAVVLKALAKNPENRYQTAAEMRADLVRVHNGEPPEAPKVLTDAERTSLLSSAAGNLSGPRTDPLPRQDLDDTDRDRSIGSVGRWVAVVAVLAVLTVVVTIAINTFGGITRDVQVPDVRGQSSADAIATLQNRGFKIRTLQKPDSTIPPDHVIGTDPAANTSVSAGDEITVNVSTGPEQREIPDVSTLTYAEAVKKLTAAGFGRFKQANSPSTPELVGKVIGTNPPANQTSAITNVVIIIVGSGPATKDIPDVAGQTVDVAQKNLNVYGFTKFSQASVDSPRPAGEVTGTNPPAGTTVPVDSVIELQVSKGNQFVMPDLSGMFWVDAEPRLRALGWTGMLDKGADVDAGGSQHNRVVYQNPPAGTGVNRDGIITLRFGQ

T1 sequence (P61075 whole entry): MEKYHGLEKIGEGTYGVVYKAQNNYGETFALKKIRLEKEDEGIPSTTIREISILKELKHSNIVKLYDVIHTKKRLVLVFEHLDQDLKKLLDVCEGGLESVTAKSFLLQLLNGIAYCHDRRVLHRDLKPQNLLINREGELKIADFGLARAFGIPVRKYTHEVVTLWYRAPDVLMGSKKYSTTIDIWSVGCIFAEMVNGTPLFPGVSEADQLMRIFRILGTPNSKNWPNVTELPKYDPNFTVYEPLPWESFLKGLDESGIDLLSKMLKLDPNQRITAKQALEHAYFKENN

Consider `[O-][S@@+](Cc1cncs1)C(c1ccccc1)c1ccccc1` [S-CE-123, (S)-5-((Benzhydrylsulfinyl)Methyl)Thiazole], for which the remaining binding at 2.8 µM at PFPK5(P.falciparum) was 84%; on PKNB(M.tuberculosis) it was 96%.
